Source: patent publication US20240083900A1, “PYRAZOLO[1,5-A]PYRAZINE DERIVATIVES AS BTK INHIBITORS” (BIOGEN MA INC., priority 2020, published 2024)
pIC50: −log10 of the molar value.

Molecular target: BTK (Homo sapiens (Human), UniProt Q06187)
Experiment: In Vitro BTK Kinase Assay: Btk-PolyGAT-LS Assay
Type: biochemical
Conditions: BTK enzyme 0.25 nM, ATP 10 μM, polyGAT 100 nM, 30 minutes incubation, TRF readout; read-out: IC50
Experimental: The purpose of the BTK in vitro assay is to determine compound potency against BTK through the measurement of IC50. […] For a typical assay, a 24 μL aliquot of a ATP/peptide master mix (final concentration; ATP 10 μM, polyGAT 100 nM) in kinase buffer (10 mM Tris-HCl pH 7.5, 10 mM MgCl2, 200 μM Na3PO4, 5 mM DTT, 0.01% Triton X-100, and 0.2 mg/ml casein) is added to each well. […] The assay is incubated for 30 minutes before being stopped with 28 μL of a 50 mM EDTA solution. […] The plate is covered and incubated for 45 minutes at room temperature.

Chain of BTK (Q06187 whole entry): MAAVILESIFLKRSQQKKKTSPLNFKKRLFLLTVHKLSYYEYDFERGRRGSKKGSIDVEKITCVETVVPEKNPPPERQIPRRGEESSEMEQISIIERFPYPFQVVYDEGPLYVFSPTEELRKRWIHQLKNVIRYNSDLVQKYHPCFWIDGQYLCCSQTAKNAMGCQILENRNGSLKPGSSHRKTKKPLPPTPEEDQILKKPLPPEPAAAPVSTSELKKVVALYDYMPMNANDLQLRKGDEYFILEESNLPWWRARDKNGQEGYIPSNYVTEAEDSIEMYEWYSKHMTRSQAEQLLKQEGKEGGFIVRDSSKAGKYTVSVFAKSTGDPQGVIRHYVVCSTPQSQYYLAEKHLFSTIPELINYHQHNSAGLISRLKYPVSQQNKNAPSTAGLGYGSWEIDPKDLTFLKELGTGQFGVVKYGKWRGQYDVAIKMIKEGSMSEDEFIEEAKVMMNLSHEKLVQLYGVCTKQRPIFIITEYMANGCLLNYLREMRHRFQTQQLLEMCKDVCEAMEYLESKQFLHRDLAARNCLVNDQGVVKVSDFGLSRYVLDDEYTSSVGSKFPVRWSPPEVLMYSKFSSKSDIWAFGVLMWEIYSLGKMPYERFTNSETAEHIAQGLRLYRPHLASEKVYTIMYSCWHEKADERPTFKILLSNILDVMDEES

| Compound | pIC50 |
| --- | --- |
| C=CC(=O)N1CCC[C@@H](Oc2nc(-c3cc(OC)ncn3)cn3nccc23)CC1 [Example 74, (R)-1-(4-((6-(6-methoxypyrimidin-4-yl)pyrazolo[1,5-a]pyrazin-4-yl)oxy)azepan-1-yl)prop-2-en-1-one] | 6.00 to 8.00 |
| C=CC(=O)N1CCC[C@@H](Oc2nc(-c3nc(C)co3)cn3nccc23)CC1 [Example 75, (R)-1-(4-((6-(4-methyloxazol-2-yl)pyrazolo[1,5-a]pyrazin-4-yl)oxy)azepan-1-yl)prop-2-en-1-one] | 6.00 to 8.00 |
| C=CC(=O)N1CCC[C@@H](Oc2nc(-c3csc(C)n3)cn3nccc23)CC1 [Example 76, (R)-1-(4-((6-(2-methylthiazol-4-yl)pyrazolo[1,5-a]pyrazin-4-yl)oxy)azepan-1-yl)prop-2-en-1-one] | 8.00 to 9.00 |
| C=CC(=O)N1CCC[C@@H](Oc2nc(-c3cnc(C)s3)cn3nccc23)CC1 [Example 77, (R)-1-(4-((6-(2-methylthiazol-5-yl)pyrazolo[1,5-a]pyrazin-4-yl)oxy)azepan-1-yl)prop-2-en-1-one] | > 9.00 |
| C=CC(=O)N1CCC[C@@H](Oc2nc(-c3cc(C)ns3)cn3nccc23)CC1 [Example 78, (R)-1-(4-((6-(3-methylisothiazol-5-yl)pyrazolo[1,5-a]pyrazin-4-yl)oxy)azepan-1-yl)prop-2-en-1-one] | 8.00 to 9.00 |
| C=CC(=O)N(C)[C@H]1C[C@@](C)(Oc2nc(-c3cn[nH]c3)cn3nccc23)C1 [Example 80, N-((1s,3s)-3-((6-(1H-pyrazol-4-yl)pyrazolo[1,5-a]pyrazin-4-yl)oxy)-3-methylcyclobutyl)-N-methylacrylamide] | > 9.00 |
| C=CC(=O)NC1CC2CC1CC2Oc1cc(-c2cnn(C)c2)cn2nccc12 (centres unmarked) [Example 82, N-(5-((6-(1-methyl-1H-pyrazol-4-yl)pyrazolo[1,5-a]pyridin-4-yl)oxy)bicyclo[2.2.1]heptan-2-yl)acrylamide] | 8.00 to 9.00 |
| C=CC(=O)N1C[C@H](COc2cc(-c3cnn(C)c3)cn3nccc23)OC(C)(C)C1 [Example 83, (R)-1-(2,2-dimethyl-6-(((6-(1-methyl-1H-pyrazol-4-yl)pyrazolo[1,5-a]pyridin-4-yl)oxy)methyl)morpholino)prop-2-en-1-one] | 8.00 to 9.00 |
| C=CC(=O)NC1CN(c2cc(-c3cnn(C)c3)cn3nccc23)CC12CC2 (centres unmarked) [Example 87, N-(5-(6-(1-methyl-1H-pyrazol-4-yl)pyrazolo[1,5-a]pyridin-4-yl)-5-azaspiro[2.4]heptan-7-yl)acrylamide] | 6.00 to 8.00 |
| C=CC(=O)N1CC2CC1CC2Nc1cc(-c2cnn(C)c2)cn2nccc12 (centres unmarked) [Example 88, 1-(5-((6-(1-methyl-1H-pyrazol-4-yl)pyrazolo[1,5-a]pyridin-4-yl)amino)-2-azabicyclo[2.2.1]heptan-2-yl)prop-2-en-1-one] | 8.00 to 9.00 |
| C=CC(=O)NC1CN(c2cc(-c3cnn(C)c3)cn3nccc23)CC(F)(F)C1 (centres unmarked) [Example 89, N-(5,5-difluoro-1-(6-(1-methyl-1H-pyrazol-4-yl)pyrazolo[1,5-a]pyridin-4-yl)piperidin-3-yl)acrylamide] | 6.00 to 8.00 |
| C=CC(=O)N1CCCN(Cc2nc(-c3cnn(C)c3)cn3nccc23)CC1 [Example 90, 1-(4-((6-(1-methyl-1H-pyrazol-4-yl)pyrazolo[1,5-a]pyrazin-4-yl)methyl)-1,4-diazepan-1-yl)prop-2-en-1-one] | 6.00 to 8.00 |
| C=CC(=O)N1CCCC(N(C)Cc2nc(-c3cnn(C)c3)cn3nccc23)C1 (centres unmarked) [Example 91, 1-(3-(methyl((6-(1-methyl-1H-pyrazol-4-yl)pyrazolo[1,5-a]pyrazin-4-yl)methyl)amino)piperidin-1-yl)prop-2-en-1-one] | 6.00 to 8.00 |
| CN(C)C/C=C/C(=O)N[C@H]1CCC[C@@H](Oc2nc(-c3cnn(C)c3)cn3ncc(F)c23)C1 [Example 94, (E)-4-(dimethylamino)-N-((1S,3R)-3-((3-fluoro-6-(1-methyl-1H-pyrazol-4-yl)pyrazolo[1,5-a]pyrazin-4-yl)oxy)cyclohexyl)but-2-enamide] | 6.00 to 8.00 |
